Tests used:
Type in all cases: in vivo
[1] = test system: common (oilseed) sunflower (Helianthus annuus); experiment: Test B pre-/postemergence plant response; details: Preemergence
Summary of the method: (§1)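 Preemergence and postemergence (plants 2-18 cm, 1- to 4-leaf stage) applications used test chemicals in a non-phytotoxic solvent with surfactant. Plants were held in a greenhouse 13 to 15 days, then rated visually against controls on a 0-100 scale (0 no effect, 100 complete control).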

[2] = test system: surinam grass (Brachiaria decumbens); experiment: Test B pre-/postemergence plant response; details: for Surinam Grass plant response rating: 8 g ai/ha
Summary of the method: as §1

[3] = test system: large crabgrass (Digitaria sanguinalis); experiment: Test B pre-/postemergence plant response; details: for Crabgrass, Large plant response rating: 8 g ai/ha
Summary of the method: as §1

[4] = test system: morningglory (Ipomoea coccinea); experiment: Test B pre-/postemergence plant response; details: for Morningglory plant response rating: 8 g ai/ha
Summary of the method: as §1

[5] = test system: wheat (Triticum aestivum); experiment: Test B pre-/postemergence plant response; details: for Wheat plant response rating: 8 g ai/ha
Summary of the method: as §1

[6] = test system: wild oat (Avena fatua); experiment: Test B pre-/postemergence plant response; details: for Oat, Wild plant response rating: 8 g ai/ha
Summary of the method: as §1

[7] = test system: downy bromegrass (Bromus tectorum); experiment: Test B pre-/postemergence plant response; details: for Bromegrass, Downy plant response rating: 8 g ai/ha
Summary of the method: as §1

[8] = test system: velvetleaf (Abutilon theophrasti); experiment: Test B pre-/postemergence plant response; details: for Velvetleaf plant response rating: 8 g ai/ha
Summary of the method: as §1

[9] = test system: green foxtail (Setaria viridis); experiment: Test B pre-/postemergence plant response; details: for Foxtail, Green plant response rating: 8 g ai/ha
Summary of the method: as §1

[10] = test system: corn (Zea mays); experiment: Test B pre-/postemergence plant response; details: for Corn plant response rating: 8 g ai/ha
Summary of the method: as §1

[11] = test system: ducksalad (Heteranthera limosa); experiment: Test B flooded paddy test plant response
Summary of the method: (§2)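 Rice, umbrella sedge, ducksalad and barnyardgrass at 2-leaf stage; pots flooded to 3 cm, compounds applied into paddy water, depth held throughout. Greenhouse 13 to 15 days, then visual rating vs untreated controls on 0–100 scale (0 no effect, 100 complete control); dash means no test result.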

[12] = test system: barnyardgrass (Echinochloa crus-galli); experiment: Test B flooded paddy test plant response
Summary of the method: as §2

[13] = test system: rice (Oryza sativa); experiment: Test B flooded paddy test plant response
Summary of the method: as §2

[14] = test system: umbrella sedge (Cyperus difformis); experiment: Test B flooded paddy test plant response
Summary of the method: as §2

[15] = Postemergence, 16 g ai/ha, scale 0 to 100
[16] = Postemergence, 62 g ai/ha, scale 0 to 100, 0 no effect, 100 complete control
[17] = Preemergence, 16 g ai/ha, scale 0 to 100 (0 no effect, 100 complete control)
[18] = Preemergence, 31 g ai/ha, 0 to 100 scale, 0 no effect, 100 complete control
[19] = Preemergence, 62 g ai/ha, scale 0 to 100
[20] = Postemergence, 31 g ai/ha, scale 0 to 100, 0 no effect, 100 complete control
[21] = Flood (flooded paddy test), 62 g ai/ha, scale 0 to 100, 0 no effect, 100 complete control
[22] = Flood (flooded paddy test), 125 g ai/ha, scale 0 to 100, 0 no effect, 100 complete control
[23] = Flood (flooded paddy test), 250 g ai/ha, scale 0 to 100, 0 no effect, 100 complete control
[24] = Flood, 31 g ai/ha, scale 0 to 100

## Cn1ncc(O)c(-c2nn(-c3ccc(Cl)cc3)cc2Cl)c1=O [Compound 28]
[1]; 16 g ai/ha, scale 0 to 100 (0 no effect, 100 complete control)
  Plant response rating, Sunflower: 0
[1]; 31 g ai/ha, 0 to 100 scale, 0 no effect, 100 complete control
  Plant response rating, Sunflower: 0
[1]; 62 g ai/ha, scale 0 to 100
  Plant response rating, Sunflower: 0
[1]; 8 g ai/ha, scale 0 to 100
  Sunflower plant response rating: 0
[2]; postemergence, 0-100 scale
  Surinam Grass plant response rating: 65
[2]; [15]
  Plant response rating, Surinam Grass: 65
[2]; [16]
  Plant response rating, Surinam Grass: 90
[2]; [17]
  Plant response rating, Surinam Grass: 65
[2]; [18]
  Plant response rating, Surinam Grass: 98
[2]; [19]
  Plant response rating, Surinam Grass: 100
[2]; Preemergence, scale 0 to 100
  Surinam Grass plant response rating: 0
[3]; postemergence, 0-100 scale
  Crabgrass, Large plant response rating: 60
[3]; [15]
  Plant response rating, Crabgrass, Large: 75
[3]; [20]
  Plant response rating, Crabgrass, Large: 80
[3]; [16]
  Plant response rating, Crabgrass, Large: 98
[3]; [17]
  Plant response rating, Crabgrass, Large: 98
[3]; [18]
  Plant response rating, Crabgrass, Large: 100
[3]; [19]
  Plant response rating, Crabgrass, Large: 100
[3]; Preemergence, scale 0 to 100
  Crabgrass, Large plant response rating: 65
[4]; postemergence, 0-100 scale
  Morningglory plant response rating: 0
[4]; [15]
  Plant response rating, Morningglory: 0
[4]; [20]
  Plant response rating, Morningglory: 0
[4]; [16]
  Plant response rating, Morningglory: 0
[4]; [17]
  Plant response rating, Morningglory: 0
[4]; [18]
  Plant response rating, Morningglory: 0
[4]; [19]
  Plant response rating, Morningglory: 0
[4]; Preemergence, scale 0 to 100
  Morningglory plant response rating: 0
[5]; postemergence, 0-100 scale
  Wheat plant response rating: 20
[5]; [15]
  Plant response rating, Wheat: 40
[5]; [16]
  Plant response rating, Wheat: 90
[5]; [17]
  Plant response rating, Wheat: 5
[5]; [18]
  Plant response rating, Wheat: 15
[5]; [19]
  Plant response rating, Wheat: 90
[5]; Preemergence, scale 0 to 100
  Wheat plant response rating: 0
[6]; postemergence, 0-100 scale
  Oat, Wild plant response rating: 45
[6]; [15]
  Plant response rating, Oat, Wild: 80
[6]; [20]
  Plant response rating, Oat, Wild: 95
[6]; [16]
  Plant response rating, Oat, Wild: 98
[6]; [17]
  Plant response rating, Oat, Wild: 50
[6]; [18]
  Plant response rating, Oat, Wild: 70
[6]; [19]
  Plant response rating, Oat, Wild: 90
[6]; Preemergence, scale 0 to 100
  Oat, Wild plant response rating: 0
[7]; postemergence, 0-100 scale
  Bromegrass, Downy plant response rating: 0
[7]; [15]
  Plant response rating, Bromegrass, Downy: 5
[7]; [20]
  Plant response rating, Bromegrass, Downy: 10
[7]; [16]
  Plant response rating, Bromegrass, Downy: 20
[7]; [17]
  Plant response rating, Bromegrass, Downy: 40
[7]; [18]
  Plant response rating, Bromegrass, Downy: 50
[7]; [19]
  Plant response rating, Bromegrass, Downy: 50
[7]; Preemergence, scale 0 to 100
  Bromegrass, Downy plant response rating: 20
[8]; postemergence, 0-100 scale
  Velvetleaf plant response rating: 0
[8]; [15]
  Plant response rating, Velvetleaf: 0
[8]; [16]
  Plant response rating, Velvetleaf: 0
[8]; [17]
  Plant response rating, Velvetleaf: 0
[8]; [18]
  Plant response rating, Velvetleaf: 0
[8]; [19]
  Plant response rating, Velvetleaf: 0
[8]; Preemergence, scale 0 to 100
  Velvetleaf plant response rating: 0
[9]; postemergence, 0-100 scale
  Foxtail, Green plant response rating: 60
[9]; [15]
  Plant response rating, Foxtail, Green: 65
[9]; [20]
  Plant response rating, Foxtail, Green: 98
[9]; [16]
  Plant response rating, Foxtail, Green: 100
[9]; [17]
  Plant response rating, Foxtail, Green: 100
[9]; [18]
  Plant response rating, Foxtail, Green: 100
[9]; [19]
  Plant response rating, Foxtail, Green: 100
[9]; Preemergence, scale 0 to 100
  Foxtail, Green plant response rating: 30
[10]; postemergence, 0-100 scale
  Corn plant response rating: 0
[10]; [15]
  Plant response rating, Corn: 0
[10]; [20]
  Plant response rating, Corn: 0
[10]; [16]
  Plant response rating, Corn: 40
[10]; [17]
  Plant response rating, Corn: 0
[10]; [18]
  Plant response rating, Corn: 55
[10]; [19]
  Plant response rating, Corn: 90
[10]; Preemergence, scale 0 to 100
  Corn plant response rating: 0
[11]; [21]
  Plant response rating, Ducksalad: 0
[11]; [22]
  Plant response rating, Ducksalad: 0
[11]; [23]
  Plant response rating, Ducksalad: 0
[11]; [24]
  Plant response rating, Ducksalad: 0
[12]; [21]
  Plant response rating, Barnyardgrass: 0
[12]; [22]
  Plant response rating, Barnyardgrass: 0
[12]; [23]
  Plant response rating, Barnyardgrass: 30
[12]; [24]
  Plant response rating, Barnyardgrass: 0
[13]; [21]
  Plant response rating, Rice: 0
[13]; [22]
  Plant response rating, Rice: 0
[13]; [23]
  Plant response rating, Rice: 60
[13]; [24]
  Plant response rating, Rice: 0
[14]; [21]
  Plant response rating, Sedge, Umbrella: 0
[14]; [22]
  Plant response rating, Sedge, Umbrella: 0
[14]; [23]
  Plant response rating, Sedge, Umbrella: 0
[14]; [24]
  Plant response rating, Sedge, Umbrella: 0

Reference: patent publication US20100267561A1, “HERBICIDAL PYRIDAZINONE DERIVATIVES” (priority 2007, published 2010)
